Reference: ChEMBL document CHEMBL4043140, “Synthesis of different heterocycles-linked chalcone conjugates as cytotoxic agents and tubulin polymerization inhibitors” (Bioorg Med Chem, 2017)
The source made the active and inactive calls. The rule behind the calls is not given here.

Key:
[1] = system: HCT-116; experiment: Antiproliferative activity against human HCT116 cells after 48 hrs by MTT assay; assay type: functional, cell-based; settings: HCT-116, 48 h
[2] = system: HCT-15; experiment: Antiproliferative activity against human HCT15 cells after 48 hrs by MTT assay; assay type: functional, cell-based; settings: HCT-15, 48 h
[3] = system: NCI-H460; experiment: Antiproliferative activity against human NCI-H460 cells after 48 hrs by MTT assay; assay type: functional, cell-based; settings: NCI-H460, 48 h
[4] = Antiproliferative activity against human U87 cells after 48 hrs by MTT assay; assay type: functional, cell-based, U-87MG ATCC; settings: U-87 MG
[5] = system: DU-145; experiment: Antiproliferative activity against human DU145 cells after 48 hrs by MTT assay; assay type: functional, cell-based; settings: DU-145, 48 h
[6] = system: PC-3; experiment: Antiproliferative activity against human PC3 cells after 48 hrs by MTT assay; assay type: functional, cell-based; settings: PC-3, 48 h
[7] = system: A549; experiment: Antiproliferative activity against human A549 cells after 48 hrs by MTT assay; assay type: functional, cell-based; settings: A549, 48 h
[8] = system: NCI-H460; experiment: Induction of morphological changes in human NCI-H460 cells assessed as […] deformation at 1.25 to 5 uM after 48 hrs by phase contrast microscopic analysis; assay type: functional, cell-based
[9] = system: NCI-H460; experiment: Induction of morphological changes in human NCI-H460 cells assessed as cell shrinkage at 1.25 to 5 uM after 48 hrs by phase contrast microscopic analysis; assay type: functional, cell-based
[10] = system: NCI-H460; experiment: Induction of apoptosis in human NCI-H460 cells assessed as reduction in viable cells at 1.25 to 5 uM after 48 hrs by phase contrast microscopic analysis; assay type: functional, cell-based
[11] = system: NCI-H460; experiment: Induction of apoptosis in human NCI-H460 cells assessed as horse-shoe shaped nuclei at 2.5 to 10 uM after 24 hrs by DAPI staining-based fluorescence microscopic analysis; assay type: functional, cell-based
[12] = system: NCI-H460; experiment: Induction of reactive oxygen species generation in human NCI-H460 cells after 6 hrs by DCFDA staining-based method; assay type: functional, cell-based
[13] = system: NCI-H460; experiment: Induction of reactive oxygen species generation in human NCI-H460 cells after 6 hrs in presence of NAC by DCFDA staining-based method; assay type: functional, cell-based
[14] = Inhibition of porcine brain tubulin polymerization after 1 hr in presence of GTP by fluorescence assay; design: species or system Sus scrofa
[15] = system: NCI-H460; experiment: Cell cycle arrest in human NCI-H460 cells assessed as accumulation at G0/G1 phase at 1.25 uM after 24 hrs by propidium iodide staining-based flow cytometry (reference value: 49.17%); assay type: functional
[16] = system: NCI-H460; experiment: Cell cycle arrest in human NCI-H460 cells assessed as accumulation at S phase at 1.25 uM after 24 hrs by propidium iodide staining-based flow cytometry (reference value: 15.55%); assay type: functional
[17] = system: NCI-H460; experiment: Cell cycle arrest in human NCI-H460 cells assessed as accumulation at G2/M phase at 1.25 uM after 24 hrs by propidium iodide staining-based flow cytometry (reference value: 34.71%); assay type: functional
[18] = system: NCI-H460; experiment: Cell cycle arrest in human NCI-H460 cells assessed as accumulation at G0/G1 phase at 2.5 uM after 24 hrs by propidium iodide staining-based flow cytometry (reference value: 49.17%); assay type: functional
[19] = system: NCI-H460; experiment: Cell cycle arrest in human NCI-H460 cells assessed as accumulation at S phase at 2.5 uM after 24 hrs by propidium iodide staining-based flow cytometry (reference value: 15.55%); assay type: functional
[20] = system: NCI-H460; experiment: Cell cycle arrest in human NCI-H460 cells assessed as accumulation at G2/M phase at 2.5 uM after 24 hrs by propidium iodide staining-based flow cytometry (reference value: 34.71%); assay type: functional
[21] = system: NCI-H460; experiment: Cell cycle arrest in human NCI-H460 cells assessed as accumulation at G0/G1 phase at 5 uM after 24 hrs by propidium iodide staining-based flow cytometry (reference value: 49.17%); assay type: functional
[22] = system: NCI-H460; experiment: Cell cycle arrest in human NCI-H460 cells assessed as accumulation at S phase at 5 uM after 24 hrs by propidium iodide staining-based flow cytometry (reference value: 15.55%); assay type: functional
[23] = system: NCI-H460; experiment: Cell cycle arrest in human NCI-H460 cells assessed as accumulation at G2/M phase at 5 uM after 24 hrs by propidium iodide staining-based flow cytometry (reference value: 34.71%); assay type: functional

Row | SMILES | IC50 [1] | IC50 [2] | IC50 [3] | IC50 [5] | IC50 [6] | IC50 [7] | IC50 [4] | further results
1 | COc1cc(/C=C/C(=O)c2ccc(Cl)cc2Cl)ccc1OCCCCN1CCCCC1 | > 20 µM | > 20 µM | 16.3 µM | 5.73 µM | 7.29 µM | 9.48 µM | 6.09 µM | –
2 | COc1cc(/C=C/C(=O)c2ccc(Cl)cc2)ccc1OCCCCN1CCCCC1 | > 20 µM | 8.11 µM | 10.2 µM | 7.74 µM | 6.84 µM | 8.99 µM | 8.01 µM | –
3 | COc1cc(/C=C/C(=O)c2ccc(Cl)cc2Cl)ccc1OCCCN1CC(C)OC(C)C1 (stereo unspecified) | > 20 µM | > 20 µM | > 20 µM | > 20 µM | 8.87 µM | > 20 µM | > 20 µM | –
4 | COc1cc(/C=C/C(=O)c2ccc(C)cc2)ccc1OCCCN1CC(C)OC(C)C1 (stereo unspecified) | 5.45 µM | 8.69 µM | > 20 µM | > 20 µM | > 20 µM | 9.12 µM | 4.21 µM | –
5 | COc1ccc(C(=O)/C=C/c2ccc(OCCCN3CC(C)OC(C)C3)c(OC)c2)cc1 (stereo unspecified) | 7.87 µM | 8.64 µM | 4.18 µM | 3.27 µM | > 20 µM | 7.42 µM | 5.67 µM | –
6 | COc1ccc(C(=O)/C=C/c2ccc(OCCCn3nc(C)cc3C)c(OC)c2)cc1 | 3.97 µM | 4.03 µM | 8.96 µM | 5.74 µM | 4.78 µM | 3.7 µM | 6.93 µM | –
7 | COc1cc(/C=C/C(=O)c2ccccc2O)ccc1OCCCN1CCCCC1 | 2.01 µM | 3.24 µM | 1.63 µM | 2.73 µM | 1.95 µM | 3.13 µM | 2.87 µM | –
8 | COc1cc(/C=C/C(=O)c2ccccc2OC)ccc1OCCCN1CC(C)OC(C)C1 (stereo unspecified) | 6.48 µM | 6.36 µM | 8.1 µM | 3.87 µM | > 20 µM | 5.32 µM | 5.03 µM | –
9 | COc1ccc(C(=O)/C=C/c2ccc(OCCCN3CCOCC3)c(OC)c2)cc1 | 6.78 µM | 11 µM | 9.89 µM | 2.02 µM | 7.89 µM | 5.36 µM | 7.12 µM | –
10 | COc1ccc(/C=C\c2cc(OC)c(OC)c(OC)c2)cc1O [COMBRETASTATIN A4] | 9.12 µM | 8.87 µM | 0.048 µM | 0.28 µM | 3.53 µM | 9.29 µM | 9.75 µM | –
11 | COc1cc(/C=C/C(=O)c2ccccc2)ccc1OCCCCN1CCCCC1 | > 20 µM | > 20 µM | > 20 µM | > 20 µM | 9.18 µM | > 20 µM | > 20 µM | –
12 | COc1ccc(C(=O)/C=C/c2ccc(OCCN3CCOCC3)c(OC)c2)cc1 | > 20 µM | 7.54 µM | 9.96 µM | 8.74 µM | 9.19 µM | 8.21 µM | 7.09 µM | –
13 | COc1cc(/C=C/C(=O)c2ccc(Cl)cc2Cl)ccc1OCCN1CCOCC1 | 19.9 µM | 18.2 µM | > 20 µM | 6.74 µM | 5.12 µM | > 20 µM | > 20 µM | –
14 | COc1cc(/C=C/C(=O)c2ccc(C(F)(F)F)cc2)ccc1OCCN1CCOCC1 | > 20 µM | > 20 µM | > 20 µM | > 20 µM | 6.17 µM | 19.1 µM | > 20 µM | –

The next lines start with results.

Row | IC50 [1] | IC50 [2] | IC50 [3] | IC50 [5] | IC50 [6] | IC50 [7] | SMILES | IC50 [4] | further results
15 | > 20 µM | > 20 µM | 8.16 µM | 17.1 µM | 8.93 µM | 16.5 µM | COc1cc(/C=C/C(=O)c2ccc(Br)cc2)ccc1OCCCN1CCCCC1 | > 20 µM | –
16 | > 20 µM | 19.9 µM | > 20 µM | 16.1 µM | > 20 µM | 18.7 µM | COc1ccc(C(=O)/C=C/c2ccc(OCCCN3CCc4ccccc43)c(OC)c2)cc1 | 15.2 µM | –
17 | > 20 µM | > 20 µM | > 20 µM | > 20 µM | > 20 µM | > 20 µM | COc1cc(/C=C/C(=O)c2ccccc2)ccc1OCCCN1CCCc2ccccc21 | 19.8 µM | –
18 | > 20 µM | > 20 µM | > 20 µM | 9.74 µM | 8.89 µM | 12.1 µM | COc1cc(/C=C/C(=O)c2ccc(Br)cc2)ccc1OCCN1CCOCC1 | > 20 µM | –
19 | > 20 µM | > 20 µM | > 20 µM | > 20 µM | 8.17 µM | > 20 µM | COc1cc(/C=C/C(=O)c2ccc(Cl)cc2Cl)ccc1OCCCN1CCCc2ccccc21 | > 20 µM | –
20 | > 20 µM | 8.97 µM | > 20 µM | > 20 µM | 7.54 µM | 9.06 µM | COc1cc(/C=C/C(=O)c2ccc(Br)cc2)ccc1OCCCCN1CCCCC1 | 4.01 µM | –
21 | > 20 µM | > 20 µM | > 20 µM | > 20 µM | > 20 µM | > 20 µM | COc1ccc(C(=O)/C=C/c2ccc(OCCCN3CCCc4ccccc43)c(OC)c2)cc1 | 18.2 µM | –
22 | 19.2 µM | > 20 µM | > 20 µM | > 20 µM | > 20 µM | > 20 µM | COc1cc(/C=C/C(=O)c2ccc(Cl)cc2Cl)ccc1OCCCN1CCc2ccccc21 | 19.8 µM | –
23 | > 20 µM | > 20 µM | > 20 µM | 18.1 µM | > 20 µM | > 20 µM | COc1cc(/C=C/C(=O)c2ccc(Cl)cc2)ccc1OCCCN1CCCc2ccccc21 | 16.2 µM | –
24 | > 20 µM | > 20 µM | > 20 µM | > 20 µM | > 20 µM | 19.1 µM | COc1cc(/C=C/C(=O)c2ccc(Br)cc2)ccc1OCCCN1CCCc2ccccc21 | > 20 µM | –
25 | 1.73 µM | 5.34 µM | 1.48 µM | 5.08 µM | 9.53 µM | 3.29 µM | COc1ccc(C(=O)/C=C/c2ccc(OCCCN3CCCCC3)c(OC)c2)cc1 | 6.3 µM | Activity [8]: Active; Activity [9]: Active; Activity [10]: Active; Activity [11]: Active; Activity [12]: Dose-dependent effect; Activity [13]: inactive; IC50 [14]: 9.66 µM; Activity [15]: 47.5%; Activity [16]: 12.21%; Activity [17]: 39.3%; Activity [18]: 46.74%; Activity [19]: 9.3%; Activity [20]: 42.88%; Activity [21]: 42.8%; Activity [22]: 8.12%; Activity [23]: 48.85%
